Measured values reported in patent US20230303712A1, “METHODS OF TREATING GLIOBLASTOMA” (Ramot at Tel-Aviv University Ltd., priority 2020, published 2023).
“Also recorded” adds a separate entry of the source.

Columns and labels:
primary human microglia = test: Real-time PCR gene expression (ARG1, iNOS, IL-10, TGF-β) in microglia treated with rSELP; type: cell-based; settings: added on top of rSELP; SELPi 0.5 µM, antibodies 2.5 µg/ml, 48 h
Experimental: To evaluate microglial expression of IL-10 TGF-β, ARG1 and iNOS by primary human microglia (1 × 10^6 cells), cells were seeded in PLL-coated plates. Twenty-four hours post-seeding cells were treated with: 0% serum DMEM alone, or exposed to rSELP (1.5 µg/ml), or exposed to rSELP and SELPi (0.5 µM), or exposed to rSELP and anti-PSGL-1 neutralizing antibody (2.5 µg/ml), or exposed to rSELP and anti-CD44 neutralizing antibody (2.5 µg/ml), or exposed to rSELP and anti-CD24 neutralizing antibody (2.5 µg/ml) for 48 h.
Real-time PCR. The expression level of target genes was assessed by SYBR green real-time PCR (StepOne plus, Life Technologies) and normalized to GAPDH housekeeping gene. Primers used were: […]

GL261 GB tumors = test: SELPi treatment in murine GL261 GB model; type: in vivo, C57BL/6 mice
Experimental: Tumor volume was evaluated by MRI.
SELPi treatments. KF 38789 (SELPi) is a commercially-available P-Selectin inhibitor manufactured by Tocris BioScience. […] This compound is commonly used for research of immune-related processes such as tumor metastases formation. For the experiment described above, SELPi (0.8 mg/ml) was dissolved in DMSO (0.01%), polyethyleneglycol (93.2 mg/ml), Tween-80 (14.8 mg/ml) and DDW. Mice were injected with 16 mg/kg IV, twice a week, three times a week or QOD as described above. As control (vehicle), mice were injected with DMSO (0.01%), polyethyleneglycol (93.2 mg/ml), Tween-80 (14.8 mg/ml), in DDW at equivalent volume.
MRI imaging. Tumor bearing mice were imaged at the Sackler Cellular & Molecular Imaging Center (SCMIC), Tel Aviv University. Mice were anesthetized by ketamine (150 mg/kg) and xylazine (12 mg/kg) injected IP. T1 with contrast agent (Magnetol, Gd-DTPA, Soreq M.R.C. Israel Radiopharmaceuticals) and T2 weighted images were taken by 4.7T MRI - MRS 4000™ (MR solutions).

[1] = system: bone marrow derived macrophages (BMDM); test: Flow cytometry of PSGL-1, CD206, CD38 on bone marrow derived macrophages; type: cell-based, murine
Experimental: Primary murine bone marrow-derived macrophages (BMDM) isolation. Bone marrow cells were freshly isolated from the tibias and the femurs of 8-12 weeks old C57BL/6 mice (Envigo CRS, Israel). Bone marrow cells were extracted using 25-gauge syringe and passed through a 70 µm nylon strainer (Corning, Israel). For macrophages differentiation cells were incubated with 50 ng/ml recombinant murine GM-CSF for one week. The medium was replaced 4 days post cells isolation. Cells were tested for CD11b and F4/80 expression using flow cytometry.
Flow cytometry. For flow cytometry assays, cells were harvested using a cell scraper, and were then washed with PBS followed by additional washes with PBS supplemented with 1% BSA and 5 mM EDTA (FACS buffer). Tumor spheroids were recovered from Matrigel using Cell Recovery Solution (Corning) and washed with FACS buffer. To validate the purity of the microglia preparations, CD11b isolated cells or human microglia were incubated with TMEM119 and P2Y12-labeled antibodies for 1 h. For human TMEM119, primary antibody was unlabeled and cells were washed and incubated with secondary, Alexa 488 conjugated antibody. To assess P-Selectin and PSGL-1 expression, GB cells and microglia were seeded alone, co-cultured in a 2D petri dish, or grown as spheroids seeded in Matrigel. Cells were treated with control medium or CM for 48 h. They were then incubated with mouse anti-human P-Selectin antibody for 1 h on ice, and then were washed, and incubated with Alexa-488 labeled anti-mouse IgG binding protein for 1 h on ice. Alternatively, cells were incubated with rat anti-human PSGL antibody, and then were washed, and incubated with goat anti-rat, Alexa-488 labeled antibody for 1 h on ice. […] Fluorescence intensity was assessed using either an Attune flow cytometer (Life Technologies) or a Gallios™ flow cytometer (Beckman Coulter, USA) and the results were analyzed by Kaluza software (Beckman Coulter, USA).

[2] = rSELP, or SELPi added to rSELP containing medium

SMILES: COc1ccc(C2CC(c3c(O)cc(C)oc3=O)=NCCS2)c(OC)c1 (stereo not drawn) [SELPi, 3-[7-(2,4-Dimethoxyphenyl)-2,3,6,7-tetrahydro-1,4-thiazepin-5-yl]-4-hydroxy-6-methyl-2H-pyran-2-one]
- rescue of rSELP effects on ARG1, iNOS, IL-10, TGF-β expression (primary human microglia): rescue the effects of rSELP; also recorded: rescued rSELP effects
- tumor volume (MRI) (GL261 GB tumors; GL261, SELPi IV 16 mg/kg three times a week, 16 mg/kg): significant reduction in tumor volume; also recorded: reduced tumor growth
- CD4+ and CD8+ T cells in tumors (GL261 GB tumors; GL261 tumors): increase
- CD4+/FOXP3+ T cells in tumors (GL261 GB tumors; GL261 tumors): decrease
- blood vessel density (CD31 immunostaining) (GL261 GB tumors; GL261 tumors): clear reduction
- proliferation (Ki-67 immunostaining) (GL261 GB tumors; GL261 tumors): clear reduction
- PSGL-1 expression ([1]; rSELP and GB CM, or SELPi added to GB CM): reduced
- CD38 expression [1, 2]: elevated
- CD206 expression [1, 2]: reduced
